Assay results from patent US20230149561A1, “Functionalized Nanoparticles and Their Use in Treating Bacterial Infections” (The Board of Trustees of the Leland Stanford Junior …, priority 2019, published 2023).
≈ marks a conversion by molar mass, not a printed value.

How the values were obtained:
[1] = test system: Klebsiella pneumoniae CDC 0044; test: MIC and MBC against Meropenem-resistant Klebsiella; format: cell-based; settings: Meropenem-resistant strain, before combination
[2] = test system: P. aeruginosa clinical otopathogenic strain (PA CSOM) biofilm; test: MBEC Assay biofilm eradication, 48 h old PA CSOM biofilm; format: cell-based, Pseudomonas aeruginosa; settings: 24 h treatment
Experimental: (§1) (1-2) Bacteria culture is prepared and dispensed into a 96-well microplate. (3) The peg lid is placed in the bacteria culture and incubated to generate the biofilm. (4) The peg lid is gently rinsed to removed planktonic bacteria and a serial diluted test solution is dispensed into a new 96-well microplate. (5) The pegs covered in biofilm are incubated in the test solutions. (6) The peg lid is again gently rinsed to remove planktonic bacteria and placed in a new 96-well microplate containing recovery media. The peg lid is then sonicated to dislodge the biofilm into the recovery media. (7) Following sonication, the peg lid is replaced with a regular 96-well microplate lid and the plate containing recovery media is incubated. Following incubation, the OD650 absorbance is read on a spectrophotometer. Wells with an OD650 of less than 0.1 is evidence of biofilm eradication. (8) Spot plated on LB agar plates is use to confirm biofilm eradication.
(§2) Then, the minimum biofilm eradication concentration (MBEC) of FLOXIN®Otic against 48 h old PA01 and PA CSOM biofilms were determined using the commercially available MBEC Assay® (Innovotech Inc. Edmonton, Canada). […] Although PA CSOM produced quantitatively less biofilms than PAO1, it had the highest tolerance to ofloxacin. […]

[3] = test system: PA CSOM logarithmic culture; test: Persistence assay, PA CSOM; format: cell-based, Pseudomonas aeruginosa; settings: ofloxacin 100 μg/mL, 24 h
Experimental: (§3) FIGS. 2A-2B: Increasing the fraction of persister cells promotes biofilm tolerance to ofloxacin. FIG. 2A) Susceptibility of surviving persister cells in logarithmic-phase culture. […] Data are presented as mean±s.d. (n=3). FIG. 2B) Comparison of persister cell fraction between PAO1 and PA CSOM in logarithmic-phase culture. Cells of logarithmic-phase were treated with ofloxacin ([…]) for 24 h and then plated for colony counting. The persister fraction was calculated as the ratio between the number of surviving bacteria after ofloxacin treatment compared to that measured in the corresponding untreated control (PBS). Data are presented as mean±s.d. (n=3). Statistical comparisons were done using a two-tailed t-test as indicated. ****p≤0.0001 and **p≤0.01.
(§4) PA01 and PA CSOM cultures were incubated at 37° C. with shaking. 1 mL of culture from each strain was aliquoted when reaching an OD600 of 0.3. Cultures were gently rinsed to remove LB medium and replaced with 1 mL of PBS. Ofloxacin (100 μg/mL) was added to the culture flasks (except for the control flasks). After 24 h incubation, ofloxacin was removed and the number of colony-forming units per milliliter (CFU/mL) was determined. […] The fraction of persister cells was calculated as the ratio of the CFU/mL after ofloxacin treatment to the CFU/mL of the control flasks.

PA01 logarithmic culture = test: Persistence assay, PA01; format: cell-based, Pseudomonas aeruginosa; settings: ofloxacin 100 μg/mL, 24 h
Experimental: as §3, §4

[4] = test system: stationary phase planktonic PA; test: Killing of stationary phase planktonic PA; format: cell-based, Pseudomonas aeruginosa; settings: 24 hr treatment, AuNC@CPP (16000 μg/mL), OFL (750 μg/mL)
PA CSOM = test: Minimum inhibitory concentration against PA CSOM; format: cell-based; settings: Pseudomonas aeruginosa
[5] = test system: PA01 (chromosomally encoded luminescent) biofilm; format: cell-based, Pseudomonas aeruginosa; settings: 10-day-old PA01 biofilm, 24 hr treatment
Experimental: Biofilms of PA01 (10-day-old) were grown in the commercially available Calgary Biofilm Device (a 96-well plate)/minimum biofilm eradication concentration (MBEC) assay plate (46). […] Wells were washed with PBS and biofilms were disrupted with sonication and incubated in recovery media for turbidity measurements. A well was considered to have biofilm eradicated if the optical density at 650 nm (OD650) was less than 0.1 after 24 hours.

[6] = test system: PA CSOM surviving persister cells, logarithmic-phase culture; test: Ofloxacin sensitivity of resuscitated persister cells in logarithmic-phase culture; format: cell-based, Pseudomonas aeruginosa; settings: ofloxacin 100 μg/mL, 24 h
Experimental: FIG. 8: Cartoon depicting the flowchart to evaluate ofloxacin sensitivity to persister cells resuscitation in logarithmic-phase culture. (1) Surviving persister cells following the treatment of PA CSOM biofilm with ofloxacin at 3000 μg/mL were replaced in fresh media and incubated at 37° C. and were aerated at 225 r.p.m. (2) Cells in logarithmic-phase (OD600=0.3) were treated with either phosphate-buffered saline (PBS) or ofloxacin (100 μg/mL) for 24 h. (3) following the treatment, cells were plated to determine the number of bacteria per milliliter (CFU/mL).
The drug-refractory state associated with PA CSOM biofilm formation is mediated by tolerance rather than resistance to the antibiotic.

[7] = test system: P. aeruginosa wild-type PA01 biofilm; test: MBEC Assay biofilm eradication, 48 h old PA01 biofilm; format: cell-based, Pseudomonas aeruginosa; settings: 24 h treatment
Experimental: as §1, §2

PA01 = test: Minimum inhibitory concentration against PA01; format: cell-based; settings: Pseudomonas aeruginosa
biofilm = test: Biofilm eradication by cell-penetrating peptide alone; format: cell-based; settings: CPP alone, spot plated on LB agar
Description: FIG. 20: Cell-penetrating peptide alone cannot eradicate the biofilm; the entire entity of AuNCs was required for biofilm eradication. […] Each spot represents an independent experiment (n=3).

`C[C@@H](O)[C@H]1C(=O)N2C(C(=O)O)=C(S[C@@H]3CN[C@H](C(=O)N(C)C)C3)[C@H](C)[C@H]12` [Meropenem] was tested, and the MBC [1] was > 200 mg/L.

For `CC1COc2c(N3CCN(C)CC3)c(F)cc3c(=O)c(C(=O)O)cn1c23` (centres unmarked) [ofloxacin], the “minimum biofilm eradication concentration (MBEC)” value [2] was > 3000 µg/mL, the “fraction of persister cells” value [3] was 0.07% and the “fraction of persister cells of total bacteria population” value (PA01 logarithmic culture) was 0.0005%. For the same molecule, the “remaining CFU” value [4] was 10^3, the MIC (PA CSOM) was 52.5 to 100 mg/L (≈ 145 to 277 µM) and the MBEC [5] was 750 µg/mL. The “decrease in number of bacteria per milliliter (CFU/mL)” value [6] was 3 log 10, the “minimum biofilm eradication concentration (MBEC)” value [7] was 750 µg/mL and the MIC (PA01) was 1.6 to 3.3 mg/L (≈ 4.43 to 9.13 µM).

For “Ac-(YGRKKRRQRRR SEQ ID NO:7)-(β-Ala)-(β-Ala)-(β-Ala)-Cys-CONH2 (N-acetyl, three beta-Ala, Cys amide; TAT cell-penetrating peptide) [CPP, cell-penetrating peptide alone, component of AuNC@CPP]”, the “concentration without any biofilm eradication” value (biofilm) was > 4000 µg/mL.
